Experimental data: US20110318741A1, “BIOMARKERS FOR THE TREATMENT OF PSORIASIS” (priority 2010, published 2011)

Experiments:
[1] = system: proinflammatory gene products in psoriasis lesional skin; assay: mRNA abundance of inflammatory molecules in skin biopsies by real-time RT-PCR, normalized to hARP; type: in vivo, human
Description: mRNA abundance for a variety of inflammatory molecules was measured by real-time RT-PCR and expression was normalized to the house-keeping gene HARP (human acidic ribosomal protein). Inflammatory markers assessed by mRNA levels included the chemokine CXCL9, beta-defensin (DEFB4), interferon-gamma, IL-10, IL-17a, IL-22, IL-8, keratin 16, MX-1, IL-12/23 p40, IL-23 p19, iNOS and TNF. These are inflammatory molecules produced by activated DC populations, Th1, Th17, Th22 T-cells and response genes to interferon (MX-1. CXCL9) or IL-17 (defensin). Keratin 16 was also measured by mRNA levels to assess the epidermal response by an alternate means.
(§1) The pharmacodynamic effects of (S)—N-(2-(1-(3-ethoxy-4-methoxyphenyl)-2-(methylsulfonyl)ethyl)-1,3-dioxoisoindolin-4-yl)acetamide were studied in skin biopsies from subjects treated with the compound in a phase 2, multi-center, open-label study evaluating the safety, tolerability, and efficacy of the compound in recalcitrant psoriasis vulgaris. Skin biopsies were taken from uninvolved and involved skin at baseline, and from involved skin after treatment with (S)—N-(2-(1-(3-ethoxy-4-methoxyphenyl)-2-(methylsulfonyl)ethyl)-1,3-dioxoisoindolin-4-yl)acetamide 20 mg BID after 4 and 12 weeks.
The expression of proinflammatory gene products known to be involved in the pathogenesis of psoriasis was measured by real-time polymerase chain reaction (RT-PCR). With regard to gene expression, there were reductions in iNOS and IL-12/IL-23 p40 mRNAs along with reductions in IL-17A and IL-22 mRNAs, indicating inhibition of the Th1, Th17, and Th22 pathways (FIG. 5). […] Normalized IL-17A mRNA levels were reduced by 49% at week 12 and normalized IL-22 mRNA levels were reduced by 100% at week 12. DEFB4, a defensin induced in keratinocytes by IL-17, was reduced by 55% in week 4 biopsies and by 82% in week 12 biopsies. IL-8, which is induced in keratinocytes by IL-17, was reduced by 76% in week 4 biopsies and by 66% in week 12 biopsies.

[2] = system: recalcitrant psoriasis vulgaris; assay: PASI score in phase 2, multi-center, open-label study; type: in vivo, human; settings: for PSAI Median Change (%): 20 mg BID; for subjects who had PASI-75 response: week 12
Excerpt: as §1
Additionally, the reductions observed from biopsies were evaluated separately in responders and non-responders.
To identify changes in cellular infiltration or gene expression that correlate with changes in PASI score, a correlation analysis was performed using the Spearman rank-order correlation method. […] A strong trend was observed between the decrease in CD11c+myeloid DC in the epidermis the decrease in PASI score at week 4 (p=0.052).

For CCOc1cc([C@@H](CS(C)(=O)=O)N2C(=O)c3cccc(NC(C)=O)c3C2=O)ccc1OC [(S)—N-(2-(1-(3-ethoxy-4-methoxyphenyl)-2-(methylsulfonyl)ethyl)-1,3-dioxoisoindolin-4-yl)acetamide], the “reduction of normalized IL-17A mRNA levels” value ([1]; Week 12, 20 mg b.i.d.) was 49%, the “reduction of normalized IL-22 mRNA levels” value ([1]; Week 12, 20 mg b.i.d.) was 100% and the “reduction of normalized iNOS mRNA expression” value ([1]; Week 12, 20 mg b.i.d.) was 100%. The “reduction in IFN-γ gene expression in the skin” value ([1]; week 4, the three subjects who attained a PASI-75 or better at week 12) was 100%, the “IL-12/23 p40 mRNA levels” value ([1]; week 4 and week 12 biopsies, 20 mg b.i.d.) was “significant reductions” and the “reduction of normalized expression of IL-8” value ([1]; week 4 biopsies, 20 mg b.i.d.) was 76%. The “inhibition of gene expression, responders vs non-responders” value ([1]; week 12, 20 mg BID) was “greater among responders”, the “reduction of normalized expression of IL-8” value ([1]; week 12 biopsies, 20 mg b.i.d.) was 66% and the “PSAI Median Change (%)” value ([2]; Week 4, subjects also with CD3 in Dermis values, No. 19) was −29.0%. For the same molecule, the “PSAI Median Change (%)” value ([2]; Week 4, subjects also with CD3 in Epidermis values, No. 19) was −29.0%, the “PSAI Median Change (%)” value ([2]; Week 4, subjects also with CD11c in Dermis values, No. 20) was −32.0% and the “PSAI Median Change (%)” value ([2]; Week 4, subjects also with CD11c in Epidermis values, No. 18) was −26.5%. For the same molecule, the “PSAI Median Change (%)” value ([2]; Week 4, subjects also with CD56 in Dermis values, No. 20) was −32.0%, the “PSAI Median Change (%)” value ([2]; Week 4, subjects also with CD56 in Epidermis values, No. 16) was −15.0% and the “PSAI Median Change (%)” value ([2]; Week 4, subjects also with CD83/hARP values, No. 15) was −18.0%. For the same molecule, the “PSAI Median Change (%)” value ([2]; Week 4, subjects also with CXCL9/hARP values, No. 17) was −29.0%, the “PSAI Median Change (%)” value ([2]; Week 4, subjects also with DEFB4/hARP values, No. 16) was −23.5% and the “PSAI Median Change (%)” value ([2]; Week 4, subjects also with IFNγ/hARP values, No. 15) was −35.0%. For the same molecule, the “PSAI Median Change (%)” value ([2]; Week 4, subjects also with IL-2/hARP values, No. 12) was −32.0%, the “PSAI Median Change (%)” value ([2]; Week 4, subjects also with IL-8/hARP values, No. 18) was −32.0% and the “PSAI Median Change (%)” value ([2]; Week 4, subjects also with IL-10/hARP values, No. 18) was −32.0%. The “PSAI Median Change (%)” value ([2]; Week 4, subjects also with IL-17A/hARP values, No. 16) was −23.5%, the “PSAI Median Change (%)” value ([2]; Week 4, subjects also with IL-22/hARP values, No. 10) was −18.5% and the “PSAI Median Change (%)” value ([2]; Week 4, subjects also with K16/hARP values, No. 18) was −32.0%. For the same molecule, the “PSAI Median Change (%)” value ([2]; Week 4, subjects also with Langerin in Dermis values, No. 17) was −18.0%, the “PSAI Median Change (%)” value ([2]; Week 4, subjects also with Langerin in Epidermis values, No. 20) was −32.0% and the “PSAI Median Change (%)” value ([2]; Week 4, subjects also with MX1/hARP values, No. 17) was −29.0%. For the same molecule, the “PSAI Median Change (%)” value ([2]; Week 4, subjects also with TNFα/hARP values, No. 17) was −29.0%, the “PSAI Median Change (%)” value ([2]; Week 4, subjects also with Thickness values, No. 19) was −29.0% and the “PSAI Median Change (%)” value ([2]; Week 4, subjects also with iNOS/hARP values, No. 15) was −35.0%. For the same molecule, the “PSAI Median Change (%)” value ([2]; Week 4, subjects also with p19/hARP values, No. 18) was −32.0%, the “PSAI Median Change (%)” value ([2]; Week 4, subjects also with p40/hARP values, No. 13) was −29.0% and the “PSAI Median Change (%)” value ([2]; Week 12, subjects also with CD3 in Dermis values, No. 15) was −48.0%. For the same molecule, the “PSAI Median Change (%)” value ([2]; Week 12, subjects also with CD3 in Epidermis values, No. 15) was −48.0%, the “PSAI Median Change (%)” value ([2]; Week 12, subjects also with CD11c in Dermis values, No. 14) was −52.5% and the “PSAI Median Change (%)” value ([2]; Week 12, subjects also with CD11c in Epidermis values, No. 13) was −45.0%. For the same molecule, the “PSAI Median Change (%)” value ([2]; Week 12, subjects also with CD56 in Dermis values, No. 15) was −48.0%, the “PSAI Median Change (%)” value ([2]; Week 12, subjects also with CD56 in Epidermis values, No. 12) was −42.5% and the “PSAI Median Change (%)” value ([2]; Week 12, subjects also with CD83/hARP values, No. 11) was −48.0%. For the same molecule, the “PSAI Median Change (%)” value ([2]; Week 12, subjects also with CXCL9/hARP values, No. 11) was −48.0%, the “PSAI Median Change (%)” value ([2]; Week 12, subjects also with DEFB4/hARP values, No. 10) was −46.5% and the “PSAI Median Change (%)” value ([2]; Week 12, subjects also with IFNγ/hARP values, No. 12) was −54.0%. The “PSAI Median Change (%)” value ([2]; Week 12, subjects also with IL-2/hARP values, No. 10) was −54.0%, the “PSAI Median Change (%)” value ([2]; Week 12, subjects also with IL-8/hARP values, No. 14) was −54.0% and the “PSAI Median Change (%)” value ([2]; Week 12, subjects also with IL-10/hARP values, No. 14) was −54.0%. For the same molecule, the “PSAI Median Change (%)” value ([2]; Week 12, subjects also with IL-17A/hARP values, No. 10) was −46.5%, the “PSAI Median Change (%)” value ([2]; Week 12, subjects also with IL-22/hARP values, No. 6) was −46.5% and the “PSAI Median Change (%)” value ([2]; Week 12, subjects also with K16/hARP values, No. 14) was −54.0%. The “PSAI Median Change (%)” value ([2]; Week 12, subjects also with Langerin in Dermis values, No. 12) was −54.0%, the “PSAI Median Change (%)” value ([2]; Week 12, subjects also with Langerin in Epidermis values, No. 15) was −48.0% and the “PSAI Median Change (%)” value ([2]; Week 12, subjects also with MX1/hARP values, No. 11) was −48.0%. For the same molecule, the “PSAI Median Change (%)” value ([2]; Week 12, subjects also with TNFα/hARP values, No. 13) was −60.0%, the “PSAI Median Change (%)” value ([2]; Week 12, subjects also with Thickness values, No. 14) was −46.5% and the “PSAI Median Change (%)” value ([2]; Week 12, subjects also with iNOS/hARP values, No. 11) was −48.0%. For the same molecule, the “PSAI Median Change (%)” value ([2]; Week 12, subjects also with p19/hARP values, No. 14) was −54.0%, the “PSAI Median Change (%)” value ([2]; Week 12, subjects also with p40/hARP values, No. 7) was −48.0% and the “subjects who had PASI-75 response” value ([2]; IFNγ analysis set (eight subjects non PASI-75)) was “four”. For the same molecule, the “subjects who had PASI-75 response” value ([2]; Langerin in dermis analysis set (ten subjects non PASI-75)) was “four”.
